Patent US20250009852A1, “DEPLETING EGFR AND HER2 OVERCOMES RESISTANCE TO EGFR INHIBITORS IN COLORECTAL CANCER” (Health Research, Inc., priority 2021, published 2025)

How the values were obtained:
[1] = test system: HCT116 tumors; assay: Subcutaneous HCT116 tumors in SCID mice; format: in vivo, mouse; conditions: sc HCT116 tumors; 5-FU 35 mg/kg ip every 3-4 days, alone or with EP and PEPD^G278D 4 mg/kg, without aderbasib (FIG. 14)
Procedure: SCID mice (C.B.17 SCID) were bred by the Laboratory Animal Shared Resource at Roswell Park Comprehensive Cancer Center. Male mice at 7-8 weeks of age were used. All mouse experiments were approved by the Institutional Animal Care and Use Committee at Roswell Park Comprehensive Cancer Center under protocol 1022M. We established subcutaneous tumors by inoculating 1×10^6 HCT116 cells, 4×10^6 HT29 cells, or 2×10^6 SW48 cells to the flank of each mouse in 100 μl of serum free medium. Colon patient-derived xenograft (PDX) 14650 was established from a liver metastatic lesion in a patient treated at Roswell Park Comprehensive Cancer Center. Tumor fragments (˜20 mm^3) from donor mice were implanted into the flank of each mouse subcutaneously using a trocar. Orthotopic colon tumors in mice were established by inoculating HCT116 cells stably transfected with firefly luciferase (2×10^6 cells in 50 μl of 50% serum-free medium and 50% Matrigel) to the caecum wall of each mouse. Mice in each tumor model were randomized cage-wise into treatment groups using Research Randomizer (www.randomizer.org). Subcutaneous tumor volume was measured using length ×width^2÷2. Tumor volume was measured three times each week. Orthotopic tumor growth was monitored by bioluminescence weekly. Mice were given D-luciferin (150 mg/kg) by ip and anesthetized with isoflurane, and tumor burden was measured by bioluminescence using the IVIS Spectrum In Vivo Imaging System (PerkinElmer). Drug treatment was started when significant tumor growth was detected. EP (0.5 mg/kg) was administered to mice ip once daily. […] Aderbasib (60 mg/kg) was administered to mice by gavage once daily. 5-FU (35 mg/kg) was administered to mice ip twice weekly (Monday and Thursday). EP, PEPD^G278D and 5-FU were administered to mice in PBS. Aderbasib was first dissolved in DMSO and then diluted by PBS (final 5% DMSO by volume). Each agent was administered to mice at 0.1 ml volume per 20 g body weight. When a mouse was given multiple agents on the same day, the agents were dosed at approximately 30 min intervals. The mice were closely monitored for sign of adverse effects and weighed three times each week. Mice were sacrificed 24-48 hours after the last treatment, at which point the tumors were promptly removed, snap frozen and stored at −80° C. for later analysis. Some tumors were fixed in 10% buffered formalin, paraffin embedded, cut at 4 μm, and stained with hematoxylin and eosin (H & E) for histological analysis.

[2] = test system: HT29 tumors; assay: Subcutaneous HT29 tumors in SCID mice; format: in vivo, mouse; conditions: sc HT29 tumors; 5-FU 35 mg/kg ip every 4 days (FIG. 14)
Procedure: SCID mice (C.B.17 SCID) were bred by the Laboratory Animal Shared Resource at Roswell Park Comprehensive Cancer Center. Male mice at 7-8 weeks of age were used. All mouse experiments were approved by the Institutional Animal Care and Use Committee at Roswell Park Comprehensive Cancer Center under protocol 1022M. We established subcutaneous tumors by inoculating 1×10^6 HCT116 cells, 4×10^6 HT29 cells, or 2×10^6 SW48 cells to the flank of each mouse in 100 μl of serum free medium. Colon patient-derived xenograft (PDX) 14650 was established from a liver metastatic lesion in a patient treated at Roswell Park Comprehensive Cancer Center. Tumor fragments (˜20 mm^3) from donor mice were implanted into the flank of each mouse subcutaneously using a trocar. Orthotopic colon tumors in mice were established by inoculating HCT116 cells stably transfected with firefly luciferase (2×10^6 cells in 50 μl of 50% serum-free medium and 50% Matrigel) to the caecum wall of each mouse. Mice in each tumor model were randomized cage-wise into treatment groups using Research Randomizer (www.randomizer.org). Subcutaneous tumor volume was measured using length ×width^2÷2. Tumor volume was measured three times each week. Orthotopic tumor growth was monitored by bioluminescence weekly. Mice were given D-luciferin (150 mg/kg) by ip and anesthetized with isoflurane, and tumor burden was measured by bioluminescence using the IVIS Spectrum In Vivo Imaging System (PerkinElmer). Drug treatment was started when significant tumor growth was detected. EP (0.5 mg/kg) was administered to mice ip once daily. PEPD^G278D (4 mg/kg) was administered to mice ip thrice weekly (Monday, Wednesday, Friday). Aderbasib (60 mg/kg) was administered to mice by gavage once daily. 5-FU (35 mg/kg) was administered to mice ip twice weekly (Monday and Thursday). EP, PEPD^G278D and 5-FU were administered to mice in PBS. Aderbasib was first dissolved in DMSO and then diluted by PBS (final 5% DMSO by volume). […] The mice were closely monitored for sign of adverse effects and weighed three times each week. […]

[3] = Monitoring of mice for signs of adverse effects; format: in vivo; conditions: mouse, in vivo, ip, 35 mg/kg
Procedure: SCID mice (C.B.17 SCID) were bred by the Laboratory Animal Shared Resource at Roswell Park Comprehensive Cancer Center. Male mice at 7-8 weeks of age were used. All mouse experiments were approved by the Institutional Animal Care and Use Committee at Roswell Park Comprehensive Cancer Center under protocol 1022M. We established subcutaneous tumors by inoculating 1×10^6 HCT116 cells, 4×10^6 HT29 cells, or 2×10^6 SW48 cells to the flank of each mouse in 100 μl of serum free medium. Colon patient-derived xenograft (PDX) 14650 was established from a liver metastatic lesion in a patient treated at Roswell Park Comprehensive Cancer Center. Tumor fragments (˜20 mm^3) from donor mice were implanted into the flank of each mouse subcutaneously using a trocar. […] Subcutaneous tumor volume was measured using length ×width^2÷2. Tumor volume was measured three times each week. Orthotopic tumor growth was monitored by bioluminescence weekly. Mice were given D-luciferin (150 mg/kg) by ip and anesthetized with isoflurane, and tumor burden was measured by bioluminescence using the IVIS Spectrum In Vivo Imaging System (PerkinElmer). Drug treatment was started when significant tumor growth was detected. […] The mice were closely monitored for sign of adverse effects and weighed three times each week. […]

[4] = test system: HCT116 cells; assay: MTT cell proliferation assay; format: cell-based, human; conditions: 24, 48 or 72 h, PEPD^G278D 5-250 nM, cetuximab 2.75-275 nM, panitumumab 2.77-277 nM
Procedure: (§1) Cells were grown in 96-well plates. […] The cells were then washed with PBS and mixed with dimethyl sulfoxide (150 μl per well), and cell density was determined by measuring the reduction of MTT to formazan spectroscopically at 570 nm using a Synergy 2 Multi-Mode Microplate Reader (BioTek). In experiments involving siRNA transfection, 2×10^3 HCT116 cells or 6×10^3 HT29 cells were seeded to each well of 96-well plates overnight and then transfected 25 nM siRNA (scramble siRNA, EGFR siRNA or HER2 siRNA) as described above, followed by MTT assay.

[5] = test system: HT29 cells; assay: MTT cell proliferation assay; format: cell-based, human; conditions: 24, 48 or 72 h, PEPD^G278D 5-250 nM, cetuximab 2.75-275 nM, panitumumab 2.77-277 nM
Procedure: as §1

[6] = test system: SW48 cells; assay: MTT cell proliferation assay; format: cell-based, human; conditions: 24, 48 or 72 h, PEPD^G278D 5-250 nM, cetuximab 2.75-275 nM, panitumumab 2.77-277 nM
Procedure: as §1

[7] = test system: HER3, MET, IGF1R, SRC, AKT, ERK, MEK; assay: Western blotting of whole cell lysates: other RTKs and downstream signaling proteins; format: cell-based, human; conditions: HCT116, HT29 and SW620 cells; 275-277 nM, 48 h
Procedure: (§2) To prepare whole cell lysates, cells were washed with PBS twice, mixed with 1× cell lysis buffer from Cell Signaling Technology supplemented with 2 mM PMSF and a protease inhibitor cocktail from Roche Applied Science, placed on ice for 10 min, sonicated at 0-4° C. to enhance cell lysis using a Branson Model 450 sonifier, and finally centrifuged at 13,000 g for 10 min at 4° C., and the supernatant fraction is collected as whole cell lysate. Tumor and samples were mixed with RIPA buffer (25 mM Tris-HCl, PH7.6, 150 mM NaCl, 1% Nonidet P-40, 1% sodium deoxycholate, and 0.1% SDS), which was supplemented with 2 mM PMSF, the protease inhibitor cocktail mentioned above, phosphatase inhibitor cocktail 2 and phosphatase inhibitor cocktail 3 from Sigma-Aldrich at 14.3 μl buffer per mg tissue, and homogenized in a Dounce homogenizer. The homogenates were cleared by centrifugation at 13,000 g for 15 min at 4° C.
(§3) Protein concentrations in all samples were measured using the BCA Assay Kit. For Western blotting, each sample was mixed with 4× loading dye, heated for 5 min at 95° C., and resolved by SDS-PAGE (8-12.5%). Proteins were transferred to polyvinylidene fluoride membrane, probed with specific antibodies, and detected using either Luminata Classico (Millipore) or Luminata Cresendo (Millipore). For IP, cell lysates (0.5 mg protein/sample) were incubated with a desired antibody overnight at 4° C., followed by incubation of 500 μl sample with 30 μl G-Sepharose beads (2 mg/ml) for 1 h at RT. The beads were washed three times with IP buffer, suspended in 2× SDS loading buffer, boiled for 5 min, and analyzed by Western blotting.

[8] = test system: EGFR; assay: Immunofluorescence staining and confocal microscopy of EGFR trafficking in SW48 cells; format: cell-based, human; conditions: chloroquine 25 μM plus PEPD^G278D 25 nM
Procedure: SW48 cells were grown in chamber slides (4×10^4 cells/well) overnight with or without subsequent treatment with PEPD^G278D (25 nM) and/or chloroquine (25 μM) for up to 6 h. The cells were then washed with ice-cold PBS, fixed with 4% paraformaldehyde for 20 min at room temperature (RT), washed again with ice-cold PBS and blocked with 1% BSA in PBS for 1 h at RT. The cells were then incubated with an EGFR antibody, a His tag antibody for detection of PEPD^G278D, and/or a LAMP1 antibody overnight at 4° C., washed with PBS, incubated with a secondary antibody conjugated to Alexa-Fluor 488 or Alexa-Fluor 647 antibody for 1 h at RT and washed again with PBS. The cells were then examined with a BZ-X700 fluorescence microscope (Keyence) with a S PL FL ELWD ADM 40xC objective. Merged images from Z-stack were organized using the ImageJ software (NIH Image).

[9] = molecular target: T1, EGFR and HER2 (Homo sapiens, UniProt P00533); assay: Western blotting of whole cell lysates: EGFR and HER2; format: cell-based; conditions: HB-EGF 20 ng/ml in medium without serum
T1 construct: Both EGFR and HER2 were expressed in HCT116, HT29, and SW48 cells; endogenous in cells; host or cells: HCT116, HT29, SW48 (SW620 lacks both)
Procedure: as §2, §3

[10] = test system: EGFR and HER2; assay: as above; format: cell-based, human; conditions: HB-EGF 20 ng/ml alone, without PEPD^G278D and FBS
Procedure: as §2, §3

[11] = test system: HER3, IGF1R, MET, SRC, AKT, ERK, MEK, NRAS, HRAS, caspase 3; assay: Western blotting of tumor homogenates: other signaling proteins; format: in vivo, mouse; conditions: HCT116 and HT29 tumors; single agent
Procedure: as §2
as §3, with “For IP, cell lysates (0.5 mg protein/sample) were incubated with a desired antibody overnight at 4° C., followed by incubation of 500 μl sample with 30 μl G-Sepharose beads (2 mg/ml) for 1 h at RT.” left out
SCID mice (C.B.17 SCID) were bred by the Laboratory Animal Shared Resource at Roswell Park Comprehensive Cancer Center. […] Subcutaneous tumor volume was measured using length ×width^2÷2. Tumor volume was measured three times each week. Orthotopic tumor growth was monitored by bioluminescence weekly. Mice were given D-luciferin (150 mg/kg) by ip and anesthetized with isoflurane, and tumor burden was measured by bioluminescence using the IVIS Spectrum In Vivo Imaging System (PerkinElmer). Drug treatment was started when significant tumor growth was detected. […] The mice were closely monitored for sign of adverse effects and weighed three times each week.

## O=c1[nH]cc(F)c(=O)[nH]1 [5-FU, fluorouracil]
[1]
  tumor growth: ineffective
[2]
  tumor growth: ineffective
[3]
  toxicity in a dose-finding experiment: not toxic

## panitumumab [reference compound]
[4]
  cell growth measured by MTT assay: neither agent is active
[5]
  cell growth measured by MTT assay: neither agent is active
[6]
  cell growth measured by MTT assay: inhibited the growth of SW48 cells in a time- and concentration-dependent manner
[7]
  effect on MET and ERK: neither cetuximab nor panitumumab had any effect

## CCN(CC)CCCC(C)Nc1ccnc2cc(Cl)ccc12 (centres unmarked) [chloroquine, reference compound]
[8]
  EGFR degradation induced by PEPD^G278D: blocked EGFR degradation

## HB-EGF: recombinant human HB-EGF, a high affinity EGFR ligand [reference compound]
[9]
  effect on EGFR depletion induced by PEPD^G278D: mimicked the effect of serum
[10]
  expression of EGFR or HER2: did not modulate the expression

## enoxaparin [EP]
[11]
  expression or phosphorylation of the proteins analyzed in tumors: neither EP nor aderbasib had any effect
